Assay results published in US20230074252A1, “DOSAGES AND METHODS FOR TREATING PULMONARY ARTERIAL HYPERTENSION WITH RODATRISTAT” (Altavant Sciences GmbH, priority 2020, published 2023).
Like-named read-outs stand apart in the source and are kept apart here.

Legend:
Experiment in all cases: Transporter inhibition, transporter-expressing in vitro system
Type in all cases: in vitro ADME
OCT2 = biological target: T1, OCT2 (Homo sapiens, UniProt O15244); conditions: for IC50: concentrations of up to 20 μM; for Potential for interaction? (transporter inhibitor), OCT2: predicted @ 600 mg BID
T1 sequence (O15244 1-555): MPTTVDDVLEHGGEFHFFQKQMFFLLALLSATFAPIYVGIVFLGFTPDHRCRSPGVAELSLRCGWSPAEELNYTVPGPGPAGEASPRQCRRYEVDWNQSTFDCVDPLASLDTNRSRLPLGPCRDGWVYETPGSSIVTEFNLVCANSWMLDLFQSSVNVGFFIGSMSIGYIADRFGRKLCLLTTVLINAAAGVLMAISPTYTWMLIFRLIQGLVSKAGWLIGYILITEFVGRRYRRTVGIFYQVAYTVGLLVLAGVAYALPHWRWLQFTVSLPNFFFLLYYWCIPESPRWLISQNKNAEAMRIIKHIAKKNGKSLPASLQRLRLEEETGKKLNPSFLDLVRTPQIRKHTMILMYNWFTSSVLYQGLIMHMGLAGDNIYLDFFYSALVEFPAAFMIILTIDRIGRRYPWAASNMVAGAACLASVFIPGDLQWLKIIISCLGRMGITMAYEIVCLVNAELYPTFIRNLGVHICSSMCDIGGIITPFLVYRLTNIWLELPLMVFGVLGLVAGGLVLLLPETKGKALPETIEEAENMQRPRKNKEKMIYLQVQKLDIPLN
Procedure: (§1) The competitive inhibition of specific transporters was investigated for RVT-1201 and KAR5417 in transporter-expressing in vitro systems (XT158039). Inhibition of P-gp was evaluated using a Caco-2 cell line with digoxin as probe substrate. Inhibition of OATP1B1 and OATP1B3 was evaluated using a HEK293 cell line expressing these transporters with estradiol-17β-glucuronide as probe substrate. In addition, inhibition of other transporters was also investigated (BCRP, OAT1, OAT3, OCT2, MATE1, MATE2-K). The IC50 estimates for P-gp (RVT-1201) and OATP1B1/3 (RVT-1201 and KAR5417) supported further evaluation of inhibition DDI potential using the PBPK model. For each IC50 estimate, substrate concentration and Km were used to estimate RVT-1201 and KAR5417 Ki with Equation 1 (Cheng and Prusoff, 1973).

MATE1 = biological target: T2, MATE1 (Homo sapiens, UniProt Q96FL8); conditions: for Potential for interaction? (transporter inhibitor), MATE1: predicted @ 600 mg BID
T2 sequence (Q96FL8 1-570): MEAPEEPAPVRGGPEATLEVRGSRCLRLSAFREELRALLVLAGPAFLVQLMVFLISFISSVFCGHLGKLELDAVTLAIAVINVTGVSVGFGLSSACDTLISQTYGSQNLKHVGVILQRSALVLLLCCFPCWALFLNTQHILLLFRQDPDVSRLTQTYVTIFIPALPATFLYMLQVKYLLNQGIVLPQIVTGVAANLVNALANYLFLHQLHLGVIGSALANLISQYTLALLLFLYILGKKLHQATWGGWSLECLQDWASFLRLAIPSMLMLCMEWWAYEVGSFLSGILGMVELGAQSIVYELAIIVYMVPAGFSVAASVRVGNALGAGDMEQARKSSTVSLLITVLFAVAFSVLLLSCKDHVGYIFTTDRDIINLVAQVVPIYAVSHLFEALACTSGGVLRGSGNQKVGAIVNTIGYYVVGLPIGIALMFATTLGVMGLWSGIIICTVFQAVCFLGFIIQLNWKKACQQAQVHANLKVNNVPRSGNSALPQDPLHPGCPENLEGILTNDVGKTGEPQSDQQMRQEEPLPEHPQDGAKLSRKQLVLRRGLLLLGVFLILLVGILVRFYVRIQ
Procedure: as §1

OAT1 = biological target: T3, OAT1 (Homo sapiens, UniProt Q4U2R8); conditions: for Potential for interaction? (transporter inhibitor), OAT1: predicted @ 600 mg BID
T3 sequence (Q4U2R8 1-563): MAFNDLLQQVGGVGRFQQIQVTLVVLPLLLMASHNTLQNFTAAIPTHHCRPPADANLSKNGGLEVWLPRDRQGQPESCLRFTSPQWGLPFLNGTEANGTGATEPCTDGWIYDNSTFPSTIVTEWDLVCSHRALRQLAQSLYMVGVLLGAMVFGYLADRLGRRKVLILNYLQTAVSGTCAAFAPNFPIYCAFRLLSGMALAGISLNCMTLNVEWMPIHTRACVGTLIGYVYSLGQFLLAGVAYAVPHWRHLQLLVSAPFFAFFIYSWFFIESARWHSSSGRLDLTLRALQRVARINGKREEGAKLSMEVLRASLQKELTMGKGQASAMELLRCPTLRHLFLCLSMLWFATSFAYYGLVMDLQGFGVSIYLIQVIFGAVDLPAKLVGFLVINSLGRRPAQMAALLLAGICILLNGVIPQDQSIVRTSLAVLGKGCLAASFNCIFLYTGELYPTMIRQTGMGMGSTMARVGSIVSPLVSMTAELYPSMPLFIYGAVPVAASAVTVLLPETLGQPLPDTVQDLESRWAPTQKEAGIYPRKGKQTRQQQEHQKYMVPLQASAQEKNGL
Procedure: as §1

MATE2-K = MATE2-K (Homo sapiens, UniProt Q86VL8); conditions: for Potential for interaction? (transporter inhibitor), MATE2-K: predicted @ 600 mg BID
Chain of MATE2-K (Q86VL8 1-566 isoform Q86VL8-3): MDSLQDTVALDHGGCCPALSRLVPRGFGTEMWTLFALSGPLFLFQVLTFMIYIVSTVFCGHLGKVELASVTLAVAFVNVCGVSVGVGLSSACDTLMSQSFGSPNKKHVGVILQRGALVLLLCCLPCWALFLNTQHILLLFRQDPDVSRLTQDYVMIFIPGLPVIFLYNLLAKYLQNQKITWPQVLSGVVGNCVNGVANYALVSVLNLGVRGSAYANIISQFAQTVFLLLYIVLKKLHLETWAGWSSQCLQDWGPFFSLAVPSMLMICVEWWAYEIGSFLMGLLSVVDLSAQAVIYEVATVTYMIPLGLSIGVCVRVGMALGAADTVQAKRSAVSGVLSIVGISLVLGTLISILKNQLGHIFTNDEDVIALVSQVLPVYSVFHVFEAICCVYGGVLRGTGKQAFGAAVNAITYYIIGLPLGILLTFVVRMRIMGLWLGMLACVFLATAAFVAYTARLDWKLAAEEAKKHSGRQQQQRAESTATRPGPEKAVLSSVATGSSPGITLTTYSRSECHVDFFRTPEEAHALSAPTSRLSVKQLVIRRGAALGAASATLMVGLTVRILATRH
Procedure: as §1

BCRP = biological target: T4, BCRP (Homo sapiens, UniProt Q9UNQ0); conditions: for Potential for interaction? (transporter inhibitor), BCRP: predicted @ 600 mg BID
T4 sequence (Q9UNQ0 1-655): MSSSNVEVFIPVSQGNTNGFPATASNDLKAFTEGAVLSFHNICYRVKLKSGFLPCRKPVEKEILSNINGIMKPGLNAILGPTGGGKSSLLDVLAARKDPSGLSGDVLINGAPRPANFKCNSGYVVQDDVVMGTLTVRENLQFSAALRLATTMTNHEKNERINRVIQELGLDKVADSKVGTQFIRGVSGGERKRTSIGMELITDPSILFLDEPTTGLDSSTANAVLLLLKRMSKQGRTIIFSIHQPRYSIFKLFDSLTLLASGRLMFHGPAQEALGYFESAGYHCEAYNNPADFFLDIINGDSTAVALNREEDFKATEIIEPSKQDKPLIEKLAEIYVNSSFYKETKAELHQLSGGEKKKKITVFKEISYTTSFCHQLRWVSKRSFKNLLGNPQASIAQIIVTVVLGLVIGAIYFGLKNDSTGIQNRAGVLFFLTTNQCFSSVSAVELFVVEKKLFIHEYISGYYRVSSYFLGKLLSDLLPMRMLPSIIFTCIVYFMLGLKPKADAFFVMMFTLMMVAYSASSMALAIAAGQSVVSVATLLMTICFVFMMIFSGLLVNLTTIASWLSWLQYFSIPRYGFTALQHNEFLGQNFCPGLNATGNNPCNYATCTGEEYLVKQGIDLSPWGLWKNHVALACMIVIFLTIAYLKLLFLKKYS
Procedure: as §1

IC50 (OCT2) [µM]	Potential for interaction? (transporter inhibitor), OCT2 (OCT2)	Potential for interaction? (transporter inhibitor), MATE1 (MATE1)	Potential for interaction? (transporter inhibitor), OAT1 (OAT1)	Potential for interaction? (transporter inhibitor), MATE2-K (MATE2-K)	Inhibition of BCRP (in words) (BCRP)	Potential for interaction? (transporter inhibitor), BCRP (BCRP)	inhibition at 30 µM (MATE1; transporter-expressing in vitro system (MATE1), nominal 30 μM) [%]	Inhibition of MATE2-K (in words) (MATE2-K; up to 30 μM nominal concentration)	SMILES	Inhibition of OAT1 (in words) (OAT1)	Inhibition of BCRP (in words) (BCRP; listed as rodatristat ethyl)	Inhibition of BCRP (in words) (BCRP; listed as rodatristat)
> 20	No	No	No	No	not an inhibitor	No			CCOC(=O)[C@@H]1CC2(CCN(c3cc(O[C@H](c4ccc(Cl)cc4-c4ccccc4)C(F)(F)F)nc(N)n3)CC2)CN1 [Rodatristat ethyl, (S)-ethyl 8-(2-amino-6-((R)-1-(5-chloro-[1,1′-biphenyl]-2-yl)-2,2,2-trifluoroethoxy)pyrimidin-4-yl)-2,8-diazaspiro[4.5]decane-3-carboxylate]	Neither rodatristat ethyl nor rodatristat inhibited	Neither rodatristat ethyl nor rodatristat inhibited	
> 20	No	No^a	No	No	not an inhibitor	No	30	did not inhibit	Nc1nc(O[C@H](c2ccc(Cl)cc2-c2ccccc2)C(F)(F)F)cc(N2CCC3(CC2)CN[C@H](C(=O)O)C3)n1 [Rodatristat, (S)-8-(2-amino-6-((R)-1-(5-chloro-[1,1′-biphenyl]-2-yl)-2,2,2-trifluoroeth-oxy)pyrimidin-4-yl)-2,8-diazaspiro[4.5]decane-3-carboxylic acid]	Neither rodatristat ethyl nor rodatristat inhibited		Neither rodatristat ethyl nor rodatristat inhibited
